{"source": "patent US9795131B2", "about": "“Sophorolactone compositions and uses thereof” (ECOVER CO-ORDINATION CENTER N.V., priority 2011, dated 2017)", "key": {"[1]": {"assay": "Capacity of solvents to dissolve sophorolactone", "format": "physicochemical", "conditions": "percent sophorolactone dissolved by the solvent at room temperature"}, "[2]": {"conditions": "OK / NOK; cited from earlier work"}, "Solubility in water": {"assay": "Solubility in water", "format": "physicochemical"}, "[3]": {"assay": "Contact angle of isoamyl lactate / partial sophorolipid hydrolysate mixtures", "format": "physicochemical", "conditions": "room temperature, sessile drop; FIG. 4", "protocol": "The contact angle of combinations of isoamyl lactate (Galactic) with partial sophorolipid hydrolysate (0.7 mol equivalent) on white PVC-strips (Leneta) was measured at room temperature with a Krüss DSA100 tensiometer using the sessile drop method. Each component of the mixtures is at maximum 1% active matter. Results are evaluated with the software Statistica."}, "[4]": {"assay": "Contact angle of deionized water on treated substrate, without or with rinses", "format": "physicochemical", "conditions": "for Contact angle Rinse 1 / Contact angle Rinse 2 / Contact angle Rinse 3 / Contact angle Rinse 4 / Contact angle Rinse 5 / Contact Angle: PVC, in ° (unit assumed); for Contact angle Rinse 1: after rinse 1; for Contact angle Rinse 2: after rinse 2; for Contact angle Rinse 3: after rinse 3; for Contact angle Rinse 4: after rinse 4; for Contact angle Rinse 5: after rinse 5; for Contact Angle: before rinsing, NM = not measurable due to an extremely low contact angle", "protocol": "A test composition was made by dissolving 10% sophorolactone in ethanol. […] […] Substrates used were glass, polyvinylchloride (PVC) and leek leaves.\n(§1) Several contact angle measurements were performed on each substrate.\nThe results obtained were for solutions wherein lactone was replaced by sodium lauryl sulphate (SPS), APG600 (a C10-C16 alkylpolyglucoside), wild type or crude sophorolipid (as obtained after fermentation, denominated as WT in Table 2), FAEO/PO nonionic (CAS 68439-51-0, C12-14 fatty alcohol, 5 mole EO, 4 mol EO), modified FAEO/PO (C8/10 fatty alcohol+1 PO+22 EO (2-hydroxydecyl)-ether) and siloxane polyether copolymer (Silwet Hydrostable 68). […]"}, "[5]": {"assay": "Contact angle of deionized water on treated substrate, without or with rinses", "format": "physicochemical", "conditions": "1% active; for Contact angle Rinse 2: after rinse 2; for Contact angle Rinse 2 / Contact angle Rinse 3 / Contact angle Rinse 1 / Contact Angle: in ° (unit assumed); for Contact angle Rinse 3: after rinse 3; for Contact angle Rinse 1: after rinse 1; for Contact Angle: before rinsing, NM = not measurable due to an extremely low contact angle", "protocol": "A test composition was made by dissolving 10% sophorolactone in ethanol. […] Different substrates are wetted with said 1% lactone dispersion and dried in a climate chamber at 40° C. Substrates used were glass, polyvinylchloride (PVC) and leek leaves.\nas §1\nThe results obtained were for solutions wherein lactone was replaced by sodium lauryl sulphate (SPS), APG600 (a C10-C16 alkylpolyglucoside), wild type or crude sophorolipid (as obtained after fermentation, denominated as WT in Table 2), FAEO/PO nonionic (CAS 68439-51-0, C12-14 fatty alcohol, 5 mole EO, 4 mol EO), modified FAEO/PO (C8/10 fatty alcohol+1 PO+22 EO (2-hydroxydecyl)-ether) and siloxane polyether copolymer (Silwet Hydrostable 68).\nThis experiment was repeated with different substrates and different 1% active surfactant solutions as elaborated in Table 2."}, "Film forming properties": {"assay": "Film forming properties", "format": "physicochemical", "excerpt": "This experiment was repeated with pieces of leek with the same outcome. […] The latter destructive detection method necessitated several PVC strips to be used, each strip lasting an extra rinse cycle before detection."}, "[6]": {"assay": "Sensitivity to hard water", "format": "physicochemical"}, "dust mite proteins": {"tested_on": "dust mite proteins", "assay": "Denaturation of dust mite proteins", "format": "biochemical"}, "[7]": {"assay": "Allergic reaction to house dust mite excrements"}, "Antifogging test": {"assay": "Antifogging test", "format": "physicochemical", "conditions": "mirror treated with 10% solution in water of 10% sophorolactone in ethanol, dried", "protocol": "The other half of the mirror was treated with a 10% solution of ethanol."}, "Propionibacterium acnes": {"tested_on": "Propionibacterium acnes", "assay": "Effectiveness against acne bacterium", "format": "cell-based"}}, "note": "Values joined by “and” are separate entries in the source; they are usually repeats but may differ in a detail not shown here. Equal values may be shown once."}
{"compound": "OCCCO", "note": "[1.3 propanediol]", "values": [{"measurement": "% lactone dissolved", "setting": "[1]", "result": 2.75, "unit": "%"}]}
{"compound": "CC1(C)OCC(CO)O1", "note": "(stereo not drawn) [2-3-o-isopropyliden glycerin, (2,2-dimethyl-[1,3]dioxolan-4-yl)-methanol]", "values": [{"measurement": "GRAS status", "setting": "[2]", "result": "NOK"}]}
{"compound": "OCc1ccccc1", "note": "[Benzylalcohol]", "values": [{"measurement": "% lactone dissolved", "setting": "[1]", "result": 67.35, "unit": "%"}]}
{"compound": "CCCCOC(=O)C(C)O", "note": "(stereo not drawn) [Butyl lactate]", "values": [{"measurement": "% lactone dissolved", "setting": "[1]", "result": 20, "unit": "%"}]}
{"compound": "CCCCCCC(O)CO", "note": "(stereo not drawn) [Caprylyl Glycol]", "values": [{"measurement": "% lactone dissolved", "setting": "[1]", "result": 8.65, "unit": "%"}]}
{"compound": "C=C(C)[C@H]1CC=C(C)CC1", "note": "[D-limonene]", "values": [{"measurement": "% lactone dissolved", "setting": "[1]", "result": 8.5, "unit": "%"}]}
{"compound": "COC(C)COC(C)CO", "note": "(stereo not drawn) [DPM, dipropyleneglycol methyl ether]", "values": [{"measurement": "% lactone dissolved", "setting": "[1]", "result": 28.93, "unit": "%"}, {"measurement": "GRAS status", "setting": "[2]", "result": "NOK"}]}
{"compound": "CO[C@H]1CO[C@H]2[C@@H]1OC[C@H]2OC", "note": "[Dimethyl isosorbide]", "values": [{"measurement": "% lactone dissolved", "setting": "[1]", "result": 31.89, "unit": "%"}, {"measurement": "GRAS status", "setting": "[2]", "result": "NOK"}]}
{"compound": "CCO", "note": "[Ethanol]", "values": [{"measurement": "% lactone dissolved", "setting": "[1]", "result": 7.5, "unit": "%"}]}
{"compound": "CCOC(C)=O", "note": "[Ethylacetate]", "values": [{"measurement": "% lactone dissolved", "setting": "[1]", "result": 3.96, "unit": "%"}]}
{"compound": "CC(=O)O", "note": "[Glacial acetic]", "values": [{"measurement": "% lactone dissolved", "setting": "[1]", "result": 23.65, "unit": "%"}]}
{"compound": "O=C1OCC(CO)O1", "note": "(stereo not drawn) [Glycerincarbonate]", "values": [{"measurement": "% lactone dissolved", "setting": "[1]", "result": "<1", "unit": "%"}]}
{"compound": "OCC(O)CO", "note": "[Glycerol]", "values": [{"measurement": "% lactone dissolved", "setting": "[1]", "result": "<1", "unit": "%"}]}
{"compound": "CCCCCCO", "note": "[Hexanol]", "values": [{"measurement": "% lactone dissolved", "setting": "[1]", "result": 2.65, "unit": "%"}]}
{"compound": "OCCCc1ccccc1", "note": "[Hydrocinnamylalcohol]", "values": [{"measurement": "% lactone dissolved", "setting": "[1]", "result": 32.5, "unit": "%"}]}
{"compound": "CC(C)CCOC(=O)C(C)O", "note": "(stereo not drawn) [Isoamyl lactate]", "values": [{"measurement": "solubility in water", "setting": "Solubility in water", "result": "≤ 1", "unit": "%"}, {"measurement": "% lactone dissolved", "setting": "[1]", "result": 21.2, "unit": "%"}, {"measurement": "concentration at maximal PVC wetting", "setting": "[3]", "result": "~1.2", "unit": "%"}, {"measurement": "GRAS status", "setting": "[2]", "result": "NOK"}]}
{"compound": "CC(C)O", "note": "[Isopropanol]", "values": [{"measurement": "% lactone dissolved", "setting": "[1]", "result": 2.2, "unit": "%"}]}
{"compound": "CCCCOCC(C)O", "note": "(stereo not drawn) [PNB Henkel]", "values": [{"measurement": "% lactone dissolved", "setting": "[1]", "result": 6.73, "unit": "%"}]}
{"compound": "CCCOCC(C)O", "note": "(stereo not drawn) [PNP, 1-propoxy 2-propanol]", "values": [{"measurement": "% lactone dissolved", "setting": "[1]", "result": 15.57, "unit": "%"}]}
{"compound": "OCCc1ccccc1", "note": "[Phenetyl alcohol]", "values": [{"measurement": "% lactone dissolved", "setting": "[1]", "result": 22, "unit": "%"}]}
{"compound": "OCCOc1ccccc1", "note": "[Phenoxyethanol]", "values": [{"measurement": "GRAS status", "setting": "[2]", "result": "NOK"}]}
{"compound": "CC(O)CO", "note": "(stereo not drawn) [Propylene glycol]", "values": [{"measurement": "% lactone dissolved", "setting": "[1]", "result": 9.05, "unit": "%"}]}
{"compound": "CCCCCCCCCCCCOS(=O)(=O)[O-].[Na+]", "note": "[SLS, sodium lauryl sulphate, reference compound]", "values": [{"measurement": "Contact angle Rinse 1", "setting": "[4]; 1% active, sulphate", "result": "72 and 100 and 96"}, {"measurement": "Contact angle Rinse 2", "setting": "[4]; 1% active, sulphate", "result": "102 and 94 and 90"}, {"measurement": "Contact angle Rinse 3", "setting": "[4]; 1% active, sulphate", "result": "64 and 65"}, {"measurement": "Contact angle Rinse 4", "setting": "[4]; 1% active, sulphate", "result": "75 and 84 and 102"}, {"measurement": "Contact angle Rinse 5", "setting": "[4]; 1% active, sulphate", "result": "100 and 99 and 101"}, {"measurement": "Contact Angle", "setting": "[4]; 1% active", "result": 1}, {"measurement": "Contact angle Rinse 2", "setting": "[5]; glass, sulphate", "result": "33.2 and 64.2 and 33.8"}, {"measurement": "Contact angle Rinse 3", "setting": "[5]; glass, sulphate", "result": "37.3 and 40.3 and 51.8"}, {"measurement": "Contact angle Rinse 4", "setting": "[5]; glass, after rinse 4, sulphate", "result": "50.8 and 36.2"}, {"measurement": "Contact angle Rinse 5", "setting": "[5]; glass, after rinse 5, sulphate", "result": "34 and 38 and 30"}]}
{"compound": "Cc1ccc(C(C)C)c(O)c1", "note": "[Thymol, thymol, reference compound]", "values": [{"measurement": "retention of active on PVC substrate", "setting": "Film forming properties; 1% dispersion of 10% lactone, 10% thymol, 80% ethanol solution, smell and sulfuric acid colour", "result": "remained fixed on the PVC substrate for several rinses"}]}
{"compound": "Glycerin formal", "values": [{"measurement": "% lactone dissolved", "setting": "[1]", "result": 35, "unit": "%"}]}
{"compound": "sophorolactone", "values": [{"measurement": "stability of dispersion", "setting": "Film forming properties; 1% sophorolactone dispersion in water made from 10% solution in ethanol", "result": "remained stable overnight at room temperature without visual separation"}, {"measurement": "removability of dried layer by water", "setting": "Film forming properties; 10% sophorolactone in benzyl alcohol applied to a PVC sheet, air dried", "result": "virtually impossible to remove with running tap water or with repeated rinsing with water"}, {"measurement": "repeated rinse and dry cycles withstood by layer", "setting": "Film forming properties; PVC sheet, 1% sophorolactone dispersion, air dried", "result": "at least 5 cycles"}, {"measurement": "sensitivity to hard water", "setting": "[6]", "result": "insensitive to hard water"}, {"measurement": "phytotoxicity", "setting": "Phytotoxicity", "result": "not phytotoxic"}, {"measurement": "contact angles and rinse resistance", "setting": "[4]; 1% lactone dispersion made using hard water", "result": "equally low contact angles and excellent rinse resistance"}, {"measurement": "Contact angle Rinse 1", "setting": "[4]; 0.1% Lactone", "result": "66 and 67 and 79"}, {"measurement": "Contact angle Rinse 2", "setting": "[4]; 0.1% Lactone", "result": "90 and 80"}, {"measurement": "Contact angle Rinse 1", "setting": "[4]; 1% active in hard water (200 ppm CaCO3)", "result": "19 and 20 and 21"}, {"measurement": "Contact angle Rinse 2", "setting": "[4]; 1% active in hard water", "result": "14 and 15"}, {"measurement": "Contact angle Rinse 3", "setting": "[4]; 1% active in hard water", "result": "12 and 17 and 14"}, {"measurement": "Contact angle Rinse 4", "setting": "[4]; 1% active in hard water", "result": "11 and 12"}, {"measurement": "Contact angle Rinse 5", "setting": "[4]; 1% active in hard water", "result": "12 and 11 and 10"}, {"measurement": "Contact angle Rinse 2", "setting": "[4]; 1% active", "result": 0}, {"measurement": "Contact angle Rinse 2", "setting": "[4]; 1% active, listed as lactone", "result": "8.4 and 16"}, {"measurement": "Contact Angle", "setting": "[4]; 1% active", "result": "7 and 10"}, {"measurement": "wetting by water after rinses", "setting": "[4]; hydrophobic surface such as PVC and leek", "result": "excellent wetting by water even after 5 rinses"}, {"measurement": "denaturation of dust mite proteins", "setting": "dust mite proteins", "result": "denatures dust mite proteins"}, {"measurement": "allergic reaction to excrements of house dust mites", "setting": "[7]", "result": "effectively reduces the allergic reaction"}, {"measurement": "condensation or fogging above boiling water", "setting": "Antifogging test", "result": "not visually covered with condensation water and retained its mirror properties"}, {"measurement": "Contact angle Rinse 1", "setting": "[5]; glass", "result": "15.3 and 10 and 12"}, {"measurement": "Contact angle Rinse 2", "setting": "[5]; glass", "result": "24.4 and 30 and 25"}, {"measurement": "Contact angle Rinse 3", "setting": "[5]; glass", "result": "23.5 and 27.8 and 25"}, {"measurement": "Contact Angle", "setting": "[5]; glass", "result": "14.2 and 14.1 and 11.3 and 10"}, {"measurement": "Contact angle Rinse 1", "setting": "[5]; leek", "result": "25 and 26 and 28"}, {"measurement": "Contact Angle", "setting": "[5]; leek", "result": "28 and 27 and 25"}, {"measurement": "effectiveness against Propionibacterium acnes", "setting": "Propionibacterium acnes", "result": "effective"}]}
